{"source": "patent US20060257388A1", "about": "“Drug delivery systems for stabilized formulations of alpha adrenergic receptor antagonists and the uses thereof” (priority 2005, published 2006)", "key": {"human": {"system": "human", "conditions": "solution containing 0.05 mg/ml; cited from earlier work"}, "[1]": {"system": "healthy adult volunteer subjects", "assay": "Dose range study, reversal of local anesthesia after mandibular nerve block (Example 4)", "assay_type": "in vivo, human", "excerpt": "The objectives of this study were to evaluate the safety and efficacy of a range of doses of phentolamine in reversing local anesthesia after a mandibular nerve block. […] Subjects palpated their lower lip, chin, tongue, and teeth every five minutes for the next five hours after injections."}, "[2]": {"system": "healthy adult volunteer subjects", "assay": "Dose range study, reversal of local anesthesia after maxillary infiltration (Example 5)", "assay_type": "in vivo, human", "procedure": "The objectives of this study were to evaluate the safety and efficacy of a range of doses of phentolamine in reversing local anesthesia after a maxillary infiltration. Four groups of eight healthy adult volunteer subjects were given an infiltration of the lateral incisor using one 1.8 ml cartridge of lidocaine 2% with epinephrine 1:100,000. […] Subjects palpated their upper lip, nose, and teeth every five minutes for the next five hours after injections."}, "patients [3]": {"system": "patients", "conditions": "systemic doses, package insert; cited from earlier work"}, "[4]": {"assay": "Effect of additives on stability, 60° C. (HPLC)", "assay_type": "physicochemical", "conditions": "for Phentolamine Concentration: 10 mM Sodium Acetate, pH 3.5, 60° C.", "excerpt": "(§1) The drug is monitored at a detection wavelength of 232 nm.\nThe additives in this study are selected from five groups of injectable excipients namely, tonicity modifiers (NaCl and d-mannitol), metal chelators (EDTA), antioxidants (sodium metabisulfite), complexing agents α-cyclodextrin and niacinamide) and solvents (glycerol and polypropylene glycol). A tonicity modifier is required for adjusting the phentolamine mesylate solution to isotonic. […] Complexing agents were applied in the hope that a possible formation of an inclusion complex (by α-cyclodextrin) or stacking complex (by niacinamide) with phentolamine would modify the rate of hydrolytic degradation of the drug substance. Solvents were added to reduce the dielectric constant of the vehicle and were intended to slow the rate of degradation due to solvent polarity.\nThe pH value of the solutions was readjusted to pH 3.5, as required. The 25% glycerol (25 g in 100 ml total volume with water) and 25% polypropylene glycol (25 g in 100 ml total volume with water) solutions had their buffer strength adjusted by addition of acetic acid followed by addition of 2 N NaOH for pH adjustment to pH 3.5 followed by addition of the drug to 0.1 mg/ml.\nAll samples were placed in 10 ml glass serum vials, stoppered with rubber closures with an inert coating (Dalkyo Flurotec by WEST Pharmaceutical), and sealed with flip-top caps after sampling. Vials were placed at 60° C. after the weights were recorded.\nSampling occurred at the initial time point and on days 2, 7, and 14. Vials were weighed, sampled, sealed, re-weighed, and replaced under the selected storage condition until testing at the subsequent time point. Records indicate no significant weight loss during storage."}, "patients [5]": {"system": "patients", "conditions": "0.5-1.5 mg, patients pretreated with lignocaine admixed with epinephrine; cited from earlier work"}, "[6]": {"assay": "Effect of buffer concentration on stability, sodium acetate pH 3.5, 60° C. (HPLC, pH)", "assay_type": "physicochemical", "procedure": "as §1\nTightly sealed glass vials containing the test solutions were placed in an oven at 40° C. or 60° C. All samples were stored in the dark. Aliquots were removed at designated time points for HPLC analysis and pH measurement. All samples were analyzed without dilution.\nIn conjunction with HPLC analysis, pH was measured. The measurement was performed using the same samples as used for the HPLC analysis. The pH meter was calibrated using pH 4.00 and 7.00 buffer standards prior to each measurement.\nSamples were incubated at 60° C. with scheduled testing performed at day 0, 2, 7, and 14. The various buffer concentrations were prepared by diluting the 50 mM buffer with water and re-examining the pH value to determine if the pH 3.5 was constant. Measurements of pH were performed after HPLC analysis of the samples."}, "[7]": {"assay": "Narrow-range pH-stability profiling at 60° C. (HPLC)", "assay_type": "physicochemical", "conditions": "50 mM sodium phosphate, FIG. 2", "procedure": "as §1\nAll samples were stored in the dark. […] All samples were analyzed without dilution.\nThe phosphate buffers were prepared as previously described. The samples were analyzed by HPLC for phentolamine concentration and purity at an initial time point and after 2, 7 and 14 days of storage at 60° C. Measurement of sample pH was done after HPLC analysis.\nIn order to precisely define the most favorable pH, a stronger stressing condition was needed to generate a greater extent of degradation in the lower pH region. For this study, the incubation condition was shifted from 40° C. to 60° C. Since the extent of degradation after fourteen (14) days was still less than twenty percent (20%) in most samples, zero-order rate kinetics was used for the degradation curves (concentration versus time). The calculated rate constant was plotted against pH to provide the narrow-range pH-stability profile."}, "healthy adult volunteers": {"system": "healthy adult volunteers", "assay": "Reversal of soft-tissue anesthesia after inferior alveolar nerve block, proof-of-principle trial (Example 3)", "assay_type": "in vivo, human", "conditions": "0.2 mg in 1.8 ml", "procedure": "The objective of this proof-of-principle trial was to evaluate the feasibility of reversing soft-tissue anesthesia by pharmacologically blocking the effects of epinephrine. […] Subjects self-evaluated the return of normal sensation in their lip, chin, tongue, nose, and teeth by palpations at 5-minute intervals starting at 5 minutes before the study drug injection and continuing for approximately 4-5 hours. To avoid biased responding, subjects were told that they could not leave the clinic for 8 hours after the last injection. Responses for soft tissues were categorized as (1) numb (no feeling), (2) feeling of pins and needles, or (3) normal sensation. Responses for teeth were (1) numb (no feeling) or (2) normal sensation. Safety was evaluated through reports of adverse events, measurement of vital signs and two-lead electrocardiograms before, during, and after the injections of anesthetic and study drug, and through pain assessments using visual analog scales."}, "[8]": {"conditions": "0.02 mg, 0.06 mg, 0.4 mg in 1.8 ml"}, "[9]": {"conditions": "0.02 mg, 0.08 mg, 0.4 mg in 1.8 ml"}}, "note": "Where a name gives a salt, the structure may show the parent alone."}
{"compound": "Cc1ccc(N(CC2=NCCN2)c2cccc(O)c2)cc1", "note": "[Phentolamine Mesylate]", "values": [{"measurement": "reversal of local anesthetic effect (in words)", "setting": "human", "value": "rapidly reverse the effect of a local anesthetic"}, {"measurement": "adverse events", "setting": "[1]; [8]", "value": "Adverse events were few and no differences were noted between the active and placebo groups"}, {"measurement": "electrocardiogram", "setting": "[1]; [8]", "value": "no abnormalities in the electrocardiogram"}, {"measurement": "duration of anesthesia versus saline placebo (in words)", "setting": "[1]; all doses tested (0.02 mg, 0.06 mg, 0.4 mg in 1.8 ml), 60 minutes after inferior alveolar nerve block, lower lip, chin, tongue, teeth", "value": "significantly (p<0.05) reduced the duration of anesthesia in each measured tissue"}, {"measurement": "adverse events", "setting": "[2]; [9]", "value": "Adverse events were few and no differences were noted between the active and placebo groups"}, {"measurement": "electrocardiogram", "setting": "[2]; [9]", "value": "no abnormalities in the electrocardiogram"}, {"measurement": "duration of anesthesia versus saline placebo (in words)", "setting": "[2]; all doses tested (0.02 mg, 0.08 mg, 0.4 mg in 1.8 ml), 40 minutes after lateral incisor infiltration, upper lip, nose, teeth", "value": "significantly (p<0.01) reduced the duration of anesthesia in each measured tissue"}, {"measurement": "side effect warning", "setting": "patients [3]", "value": "Myocardial infarction, cerebrovascular spasm, and cerebrovascular occlusion have been reported"}, {"measurement": "Phentolamine Concentration", "setting": "[4]; Additive Glycerol, 25% w/v, Day 0", "value": 126, "unit": "µg/mL"}, {"measurement": "Phentolamine Concentration", "setting": "[4]; Additive Glycerol, 25% w/v, Day 2", "value": 123, "unit": "µg/mL"}, {"measurement": "Phentolamine Concentration", "setting": "[4]; Additive Glycerol, 25% w/v, Day 14", "value": 115, "unit": "µg/mL"}, {"measurement": "Phentolamine Concentration", "setting": "[4]; Additive Polypropylene glycol, 25% w/v, Day 0", "value": 118, "unit": "µg/mL"}, {"measurement": "Phentolamine Concentration", "setting": "[4]; Additive Polypropylene glycol, 25% w/v, Day 2", "value": 121, "unit": "µg/mL"}, {"measurement": "Phentolamine Concentration", "setting": "[4]; Additive Polypropylene glycol, 25% w/v, Day 7", "value": 113, "unit": "µg/mL"}, {"measurement": "Phentolamine Concentration", "setting": "[4]; Additive Sodium metabisulfite, 0.5 mg/ml, Day 2", "value": 101, "unit": "µg/mL"}, {"measurement": "Phentolamine Concentration", "setting": "[4]; Additive α-Cyclodextrin, 50 mg/ml, Day 0", "value": 102, "unit": "µg/mL"}, {"measurement": "impact of additives on stability (in words)", "setting": "[4]; d-Mannitol and disodium EDTA", "value": "improve stability based on the rate constant or to exhibit no negative impact based on purity values"}, {"measurement": "duration of anesthesia (in words)", "setting": "patients [5]", "value": "reduction in the duration of anesthesia with increasing amounts"}, {"measurement": "Phentolamine Concentration", "setting": "[6]; 50 mM Sodium Acetate pH 3.5, 60° C., Day 2", "value": 101, "unit": "µg/mL"}, {"measurement": "rate of degradation versus un-buffered control (in words)", "setting": "[6]; 5, 10 and 50 mM sodium acetate", "value": "comparable and was an improvement over the un-buffered control"}, {"measurement": "pH at which phentolamine was most stable", "setting": "[7]", "value": 3.5}, {"measurement": "adverse effects", "setting": "healthy adult volunteers", "value": "Adverse effects were few and no differences were noted between the active and placebo groups"}, {"measurement": "electrocardiogram", "setting": "healthy adult volunteers", "value": "no abnormalities in the electrocardiogram"}, {"measurement": "duration of anesthesia versus saline (in words)", "setting": "healthy adult volunteers; 60 minutes after inferior alveolar nerve block with 2% lidocaine, 1:100,000 epinephrine, lip, chin, tongue, nose, teeth", "value": "significantly (p<0.01) reduced the duration of anesthesia in each tissue"}]}
